Results from paper PMC7407272, “Induction of Lysosome Membrane Permeabilization as a Therapeutic Strategy to Target Pancreatic Cancer Stem Cells” (Cancers, 2020).

Key:
EPHB1 = target: T1, EPHB1 (Homo sapiens, UniProt P54762); test: KINOMEscan; assay type: binding; details: read-out: % Ctrl
T1 construct: purchased DiscoveRx KINOMEscan

GRK4 = target: T2, GRK4 (Homo sapiens, UniProt P32298); test: KINOMEscan; assay type: binding; details: read-out: % Ctrl
T2 construct: purchased DiscoveRx KINOMEscan

EGFR(L747-T751del,Sins) = test: KINOMEscan; assay type: binding, human; details: 1 µM
ZAK = target: T3, ZAK (Homo sapiens, UniProt Q9NYL2); test: KINOMEscan; assay type: binding; details: read-out: % Ctrl
T3 construct: purchased DiscoveRx KINOMEscan

TYK2(JH2D.-pseudoK.) = target: T4, TYK2(JH2D.-pseudoK.) (Homo sapiens, UniProt P29597); test: KINOMEscan; assay type: binding; details: read-out: % Ctrl
T4 construct: TYK2(JH2D.-pseudoK.); purchased DiscoveRx KINOMEscan

PAK1 = target: T5, PAK1 (Homo sapiens, UniProt Q13153); test: KINOMEscan; assay type: binding; details: read-out: % Ctrl
T5 construct: purchased DiscoveRx KINOMEscan

CLK1 = target: T6, CLK1 (Homo sapiens, UniProt P49759); test: KINOMEscan; assay type: binding; details: read-out: % Ctrl
T6 construct: purchased DiscoveRx KINOMEscan

DCAMKL3 = target: T7, DCAMKL3 (Homo sapiens, UniProt Q9C098); test: KINOMEscan; assay type: binding; details: read-out: % Ctrl
T7 construct: purchased DiscoveRx KINOMEscan

[1] = test system: re-plated PDAC2-derived spheres; test: Cytosolic cysteine cathepsin activity; assay type: cell-based, human; details: 1.25 or 2.5 µM, 6 h
Method: Spheres were re-plated, and then treated the following day with the indicated concentration of compounds for 6 h in CSC media. Cells were subsequently placed on ice and extracted with either 25 µg/mL or 250 µg/mL of digitonin in 250 mM sucrose, 20 mM HEPES, 10 mM KCl, 1.5 mM MgCl2, 1 mM EDTA, 1 mM EGTA, 1 mM pefablock, pH 7.5. The extracts were taken and spun down briefly to eliminate floating cells. Cathepsin activity was measured in a 96 well format by measuring cleavage of zFR-AMC (Z-Phe-Arg-AMC. Z: N-carbobenzyloxy; 7-Amino-4-methylcoumarin), as previously described.

RIPK2 = target: T8, RIPK2 (Homo sapiens, UniProt O43353); test: KINOMEscan; assay type: binding; details: read-out: % Ctrl
T8 construct: purchased DiscoveRx KINOMEscan

SNRK = target: T9, SNRK (Homo sapiens, UniProt Q9NRH2); test: KINOMEscan; assay type: binding; details: read-out: % Ctrl
T9 construct: purchased DiscoveRx KINOMEscan

DRAK2 = target: T10, DRAK2 (Homo sapiens, UniProt O94768); test: KINOMEscan; assay type: binding; details: read-out: % Ctrl
T10 construct: purchased DiscoveRx KINOMEscan

MAP3K2 = target: T11, MAP3K2 (Homo sapiens, UniProt Q9Y2U5); test: KINOMEscan; assay type: binding; details: read-out: % Ctrl
T11 construct: purchased DiscoveRx KINOMEscan

MAP4K3 = target: T12, MAP4K3 (Homo sapiens, UniProt Q8IVH8); test: KINOMEscan; assay type: binding; details: read-out: % Ctrl
T12 construct: purchased DiscoveRx KINOMEscan

JAK1(JH1D.-cat.) = target: T13, JAK1(JH1D.-cat.) (Homo sapiens, UniProt P23458); test: KINOMEscan; assay type: binding; details: read-out: % Ctrl
T13 construct: JAK1(JH1D.-cat.); purchased DiscoveRx KINOMEscan

TESK1 = target: T14, TESK1 (Homo sapiens, UniProt Q15569); test: KINOMEscan; assay type: binding; details: read-out: % Ctrl
T14 construct: purchased DiscoveRx KINOMEscan

PRKD3 = target: T15, PRKD3 (Homo sapiens, UniProt O94806); test: KINOMEscan; assay type: binding; details: read-out: % Ctrl
T15 construct: purchased DiscoveRx KINOMEscan

MAST1 = target: T16, MAST1 (Homo sapiens, UniProt Q9Y2H9); test: KINOMEscan; assay type: binding; details: read-out: % Ctrl
T16 construct: purchased DiscoveRx KINOMEscan

ACVR2B = target: T17, ACVR2B (Homo sapiens, UniProt Q13705); test: KINOMEscan; assay type: binding; details: read-out: % Ctrl
T17 construct: purchased DiscoveRx KINOMEscan

BMX = target: T18, BMX (Homo sapiens, UniProt P51813); test: KINOMEscan; assay type: binding; details: read-out: % Ctrl
T18 construct: purchased DiscoveRx KINOMEscan

ACVR1B = target: T19, ACVR1B (Homo sapiens, UniProt P36896); test: KINOMEscan; assay type: binding; details: read-out: % Ctrl
T19 construct: purchased DiscoveRx KINOMEscan

SGK = target: T20, SGK (Homo sapiens, UniProt O00141); test: KINOMEscan; assay type: binding; details: read-out: % Ctrl
T20 construct: purchased DiscoveRx KINOMEscan

TNNI3K = target: T21, TNNI3K (Homo sapiens, UniProt Q59H18); test: KINOMEscan; assay type: binding; details: read-out: % Ctrl
T21 construct: purchased DiscoveRx KINOMEscan

CSNK1G1 = target: T22, CSNK1G1 (Homo sapiens, UniProt Q9HCP0); test: KINOMEscan; assay type: binding; details: read-out: % Ctrl
T22 construct: purchased DiscoveRx KINOMEscan

BRAF = target: T23, BRAF (Homo sapiens, UniProt P15056); test: KINOMEscan; assay type: binding; details: read-out: % Ctrl
T23 construct: purchased DiscoveRx KINOMEscan

ABL1(Q252H)-P = target: T24, ABL1(Q252H)-P (Homo sapiens, UniProt P00519, Q252H); test: KINOMEscan; assay type: binding; details: read-out: % Ctrl
T24 construct: purchased DiscoveRx KINOMEscan

GRK1 = target: T25, GRK1 (Homo sapiens, UniProt Q15835); test: KINOMEscan; assay type: binding; details: read-out: % Ctrl
T25 construct: purchased DiscoveRx KINOMEscan

SRPK1 = target: T26, SRPK1 (Homo sapiens, UniProt Q96SB4); test: KINOMEscan; assay type: binding; details: read-out: % Ctrl
T26 construct: purchased DiscoveRx KINOMEscan

AMPK-alpha2 = target: T27, AMPK-alpha2 (Homo sapiens, UniProt P54646); test: KINOMEscan; assay type: binding; details: read-out: % Ctrl
T27 construct: purchased DiscoveRx KINOMEscan

AURKA = target: T28, AURKA (Homo sapiens, UniProt O14965); test: KINOMEscan; assay type: binding; details: read-out: % Ctrl
T28 construct: purchased DiscoveRx KINOMEscan

PIK3CA(E545A) = target: T29, PIK3CA(E545A) (Homo sapiens, UniProt P42336, E545A); test: KINOMEscan; assay type: binding; details: read-out: % Ctrl
T29 construct: purchased DiscoveRx KINOMEscan

ZAP70 = target: T30, ZAP70 (Homo sapiens, UniProt P43403); test: KINOMEscan; assay type: binding; details: read-out: % Ctrl
T30 construct: purchased DiscoveRx KINOMEscan

CDC2L2 = target: T31, CDC2L2 (Homo sapiens, UniProt Q9UQ88); test: KINOMEscan; assay type: binding; details: read-out: % Ctrl
T31 construct: purchased DiscoveRx KINOMEscan

CSF1R-autoi. = target: T32, CSF1R-autoi. (Homo sapiens, UniProt P07333); test: KINOMEscan; assay type: binding; details: read-out: % Ctrl
T32 construct: purchased DiscoveRx KINOMEscan

RIPK1 = target: T33, RIPK1 (Homo sapiens, UniProt Q13546); test: KINOMEscan; assay type: binding; details: read-out: % Ctrl
T33 construct: purchased DiscoveRx KINOMEscan

MST1R = target: T34, MST1R (Homo sapiens, UniProt Q04912); test: KINOMEscan; assay type: binding; details: read-out: % Ctrl
T34 construct: purchased DiscoveRx KINOMEscan

T13 sequence (P23458 875-1154 limits assumed): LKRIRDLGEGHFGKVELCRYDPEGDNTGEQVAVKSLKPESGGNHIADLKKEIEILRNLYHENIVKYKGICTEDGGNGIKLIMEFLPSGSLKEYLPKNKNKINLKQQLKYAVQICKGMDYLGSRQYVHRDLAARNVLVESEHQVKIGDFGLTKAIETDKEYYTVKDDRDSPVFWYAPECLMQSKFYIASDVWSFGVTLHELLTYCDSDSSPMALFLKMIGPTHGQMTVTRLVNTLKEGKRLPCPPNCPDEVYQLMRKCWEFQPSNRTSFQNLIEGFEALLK
T7 sequence (Q9C098 whole entry): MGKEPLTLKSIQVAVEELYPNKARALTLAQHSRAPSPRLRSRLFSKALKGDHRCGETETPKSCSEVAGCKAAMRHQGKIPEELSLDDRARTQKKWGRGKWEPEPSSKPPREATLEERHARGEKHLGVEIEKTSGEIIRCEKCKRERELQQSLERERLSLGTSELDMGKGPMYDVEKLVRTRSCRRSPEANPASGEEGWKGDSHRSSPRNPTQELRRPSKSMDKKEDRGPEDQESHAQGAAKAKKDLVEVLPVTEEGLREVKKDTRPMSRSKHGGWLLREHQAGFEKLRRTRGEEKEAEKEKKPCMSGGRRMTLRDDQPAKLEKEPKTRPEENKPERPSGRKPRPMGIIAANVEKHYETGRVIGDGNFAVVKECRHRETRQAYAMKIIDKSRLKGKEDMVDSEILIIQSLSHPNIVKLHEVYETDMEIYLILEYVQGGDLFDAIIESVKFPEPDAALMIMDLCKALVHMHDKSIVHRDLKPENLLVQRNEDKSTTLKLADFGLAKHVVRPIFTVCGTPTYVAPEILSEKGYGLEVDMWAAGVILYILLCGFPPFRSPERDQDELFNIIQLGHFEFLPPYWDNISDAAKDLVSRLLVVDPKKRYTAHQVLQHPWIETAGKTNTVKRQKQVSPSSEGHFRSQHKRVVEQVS
T21 sequence (Q59H18 whole entry): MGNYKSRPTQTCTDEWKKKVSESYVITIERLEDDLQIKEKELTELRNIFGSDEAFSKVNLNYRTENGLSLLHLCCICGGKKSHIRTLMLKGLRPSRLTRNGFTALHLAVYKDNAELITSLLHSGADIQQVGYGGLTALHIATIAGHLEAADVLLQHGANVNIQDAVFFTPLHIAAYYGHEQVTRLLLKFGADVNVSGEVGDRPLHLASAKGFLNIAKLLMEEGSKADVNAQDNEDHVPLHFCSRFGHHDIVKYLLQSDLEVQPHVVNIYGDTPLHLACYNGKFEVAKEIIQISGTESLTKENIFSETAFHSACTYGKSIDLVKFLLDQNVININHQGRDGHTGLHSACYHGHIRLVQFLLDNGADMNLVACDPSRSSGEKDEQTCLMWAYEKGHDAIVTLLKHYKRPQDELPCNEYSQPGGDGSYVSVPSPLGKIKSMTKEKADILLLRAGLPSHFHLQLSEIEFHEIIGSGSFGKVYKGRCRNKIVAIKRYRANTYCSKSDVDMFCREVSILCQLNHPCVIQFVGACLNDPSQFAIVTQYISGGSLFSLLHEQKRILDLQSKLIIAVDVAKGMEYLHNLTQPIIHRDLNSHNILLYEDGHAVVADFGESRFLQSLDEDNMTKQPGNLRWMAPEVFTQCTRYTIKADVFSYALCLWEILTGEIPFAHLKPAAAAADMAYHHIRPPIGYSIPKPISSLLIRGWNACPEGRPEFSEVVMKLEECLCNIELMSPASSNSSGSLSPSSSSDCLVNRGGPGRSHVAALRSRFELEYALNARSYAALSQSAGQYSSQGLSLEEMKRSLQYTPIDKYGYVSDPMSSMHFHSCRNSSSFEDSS
T28 sequence (O14965 whole entry): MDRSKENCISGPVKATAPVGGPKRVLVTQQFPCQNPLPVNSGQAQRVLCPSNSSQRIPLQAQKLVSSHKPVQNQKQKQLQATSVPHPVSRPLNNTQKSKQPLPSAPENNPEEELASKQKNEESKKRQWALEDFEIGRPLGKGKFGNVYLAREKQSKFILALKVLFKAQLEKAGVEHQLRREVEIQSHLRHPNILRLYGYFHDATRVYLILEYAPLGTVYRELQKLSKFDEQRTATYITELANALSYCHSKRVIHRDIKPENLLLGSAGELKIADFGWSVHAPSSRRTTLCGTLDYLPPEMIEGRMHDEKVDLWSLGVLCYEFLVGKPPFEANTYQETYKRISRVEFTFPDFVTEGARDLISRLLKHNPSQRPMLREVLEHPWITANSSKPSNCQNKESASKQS
T29 sequence (P42336 whole entry E545A): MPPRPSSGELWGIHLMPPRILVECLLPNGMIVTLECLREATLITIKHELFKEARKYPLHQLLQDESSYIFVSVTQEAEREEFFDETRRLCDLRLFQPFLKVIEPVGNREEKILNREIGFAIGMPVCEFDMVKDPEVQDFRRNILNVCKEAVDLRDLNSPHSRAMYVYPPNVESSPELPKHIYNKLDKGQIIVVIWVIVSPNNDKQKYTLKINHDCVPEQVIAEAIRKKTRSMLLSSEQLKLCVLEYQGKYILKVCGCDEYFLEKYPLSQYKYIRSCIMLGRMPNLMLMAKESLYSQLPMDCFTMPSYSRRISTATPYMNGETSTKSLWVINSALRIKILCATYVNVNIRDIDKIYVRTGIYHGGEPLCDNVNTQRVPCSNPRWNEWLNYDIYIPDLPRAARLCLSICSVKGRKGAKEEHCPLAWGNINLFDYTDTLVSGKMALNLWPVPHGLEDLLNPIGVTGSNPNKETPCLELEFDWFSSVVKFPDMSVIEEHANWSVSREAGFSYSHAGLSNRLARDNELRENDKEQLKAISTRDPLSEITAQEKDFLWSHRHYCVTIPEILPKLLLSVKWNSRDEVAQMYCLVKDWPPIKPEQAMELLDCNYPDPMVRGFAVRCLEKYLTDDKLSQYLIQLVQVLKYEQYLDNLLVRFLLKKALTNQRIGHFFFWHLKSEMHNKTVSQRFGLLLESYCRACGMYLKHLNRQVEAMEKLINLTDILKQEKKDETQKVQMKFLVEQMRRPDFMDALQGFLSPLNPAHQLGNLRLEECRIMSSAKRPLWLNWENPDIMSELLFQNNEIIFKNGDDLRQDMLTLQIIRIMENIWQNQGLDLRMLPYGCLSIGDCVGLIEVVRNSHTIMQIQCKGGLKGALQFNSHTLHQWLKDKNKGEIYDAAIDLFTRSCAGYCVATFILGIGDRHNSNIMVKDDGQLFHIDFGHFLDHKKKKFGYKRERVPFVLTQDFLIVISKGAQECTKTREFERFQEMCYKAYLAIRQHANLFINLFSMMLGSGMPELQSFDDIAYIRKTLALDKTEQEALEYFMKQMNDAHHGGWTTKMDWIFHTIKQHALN
T9 sequence (Q9NRH2 whole entry): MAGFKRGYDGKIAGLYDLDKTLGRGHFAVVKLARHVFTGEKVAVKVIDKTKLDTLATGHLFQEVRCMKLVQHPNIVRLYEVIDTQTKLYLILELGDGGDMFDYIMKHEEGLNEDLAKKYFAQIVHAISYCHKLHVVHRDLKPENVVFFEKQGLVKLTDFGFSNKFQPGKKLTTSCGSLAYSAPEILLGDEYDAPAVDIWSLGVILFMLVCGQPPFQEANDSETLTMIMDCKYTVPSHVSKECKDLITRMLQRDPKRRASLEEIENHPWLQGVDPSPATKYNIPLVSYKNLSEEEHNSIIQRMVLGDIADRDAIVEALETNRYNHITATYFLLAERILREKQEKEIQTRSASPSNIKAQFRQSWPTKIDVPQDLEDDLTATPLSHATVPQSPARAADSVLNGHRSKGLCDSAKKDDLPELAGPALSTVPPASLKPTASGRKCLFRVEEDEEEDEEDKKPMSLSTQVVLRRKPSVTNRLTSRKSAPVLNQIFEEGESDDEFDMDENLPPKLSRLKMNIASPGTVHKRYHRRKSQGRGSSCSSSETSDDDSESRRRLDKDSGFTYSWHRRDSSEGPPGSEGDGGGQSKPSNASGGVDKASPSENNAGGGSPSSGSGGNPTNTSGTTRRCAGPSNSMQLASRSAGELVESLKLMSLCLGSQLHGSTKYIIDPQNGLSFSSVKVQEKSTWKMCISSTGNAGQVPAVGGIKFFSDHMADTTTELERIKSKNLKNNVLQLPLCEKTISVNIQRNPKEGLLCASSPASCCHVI
T20 sequence (O00141 whole entry): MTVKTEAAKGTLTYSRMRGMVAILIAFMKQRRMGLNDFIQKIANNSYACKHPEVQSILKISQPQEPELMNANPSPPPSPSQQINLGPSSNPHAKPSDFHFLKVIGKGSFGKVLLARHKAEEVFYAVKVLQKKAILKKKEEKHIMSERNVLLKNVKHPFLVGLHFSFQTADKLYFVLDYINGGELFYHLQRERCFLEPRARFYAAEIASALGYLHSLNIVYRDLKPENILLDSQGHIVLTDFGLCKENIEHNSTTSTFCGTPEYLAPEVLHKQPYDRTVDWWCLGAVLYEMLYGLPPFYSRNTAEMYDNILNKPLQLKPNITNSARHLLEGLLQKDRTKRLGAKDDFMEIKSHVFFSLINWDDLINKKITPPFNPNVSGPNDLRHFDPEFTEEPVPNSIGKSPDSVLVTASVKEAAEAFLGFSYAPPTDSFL
T32 sequence (P07333 539-972 limits assumed): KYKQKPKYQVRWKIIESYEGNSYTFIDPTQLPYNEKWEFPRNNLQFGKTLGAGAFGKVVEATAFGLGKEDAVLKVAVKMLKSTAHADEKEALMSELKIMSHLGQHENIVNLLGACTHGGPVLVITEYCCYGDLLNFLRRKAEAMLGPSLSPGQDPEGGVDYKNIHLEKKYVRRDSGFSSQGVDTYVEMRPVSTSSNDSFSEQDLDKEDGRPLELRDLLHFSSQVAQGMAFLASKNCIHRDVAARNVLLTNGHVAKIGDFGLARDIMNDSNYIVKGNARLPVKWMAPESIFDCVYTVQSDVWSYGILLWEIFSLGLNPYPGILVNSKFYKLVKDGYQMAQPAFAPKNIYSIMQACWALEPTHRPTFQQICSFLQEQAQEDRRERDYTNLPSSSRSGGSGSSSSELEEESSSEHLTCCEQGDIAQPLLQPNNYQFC

What does the source list for CN1CCC(CNc2ccc3ncc(C(=O)Nc4cccc(OC(F)(F)F)c4)n3n2)CC1 [Cpd 2]?
remaining binding at 1 µM (EPHB1): 97%; remaining binding at 1 µM (GRK4): 93%; % Ctrl (EGFR(L747-T751del,Sins)): 87%; remaining binding at 1 µM (ZAK): 96%; remaining binding at 1 µM (TYK2(JH2D.-pseudoK.)): 12%; remaining binding at 1 µM (PAK1): 100%; remaining binding at 1 µM (CLK1): 100%; remaining binding at 1 µM (DCAMKL3): 100%; cytosolic cysteine cathepsin activity [1]: increased cytosolic cysteine cathepsin activity; remaining binding at 1 µM (RIPK2): 100%; remaining binding at 1 µM (SNRK): 98%; remaining binding at 1 µM (DRAK2): 80%; remaining binding at 1 µM (MAP3K2): 92%; remaining binding at 1 µM (MAP4K3): 95%; remaining binding at 1 µM (JAK1(JH1D.-cat.)): 100%; remaining binding at 1 µM (TESK1): 90%; remaining binding at 1 µM (PRKD3): 92%; remaining binding at 1 µM (MAST1): 59%; remaining binding at 1 µM (ACVR2B): 100%; remaining binding at 1 µM (BMX): 100%; remaining binding at 1 µM (ACVR1B): 97%; remaining binding at 1 µM (SGK): 85%; remaining binding at 1 µM (TNNI3K): 100%; remaining binding at 1 µM (CSNK1G1): 99%; remaining binding at 1 µM (BRAF): 100%; remaining binding at 1 µM (ABL1(Q252H)-P): 100%; remaining binding at 1 µM (GRK1): 86%; remaining binding at 1 µM (SRPK1): 95%; remaining binding at 1 µM (AMPK-alpha2): 100%; remaining binding at 1 µM (AURKA): 96%; remaining binding at 1 µM (PIK3CA(E545A)): 100%; remaining binding at 1 µM (ZAP70): 95%; remaining binding at 1 µM (CDC2L2): 99%; remaining binding at 1 µM (CSF1R-autoi.): 88%; remaining binding at 1 µM (RIPK1): 100%; remaining binding at 1 µM (MST1R): 100%
